The target of one test is T1, human FPR2 (Homo sapiens, UniProt P25090).
T1 sequence (P25090 1-351): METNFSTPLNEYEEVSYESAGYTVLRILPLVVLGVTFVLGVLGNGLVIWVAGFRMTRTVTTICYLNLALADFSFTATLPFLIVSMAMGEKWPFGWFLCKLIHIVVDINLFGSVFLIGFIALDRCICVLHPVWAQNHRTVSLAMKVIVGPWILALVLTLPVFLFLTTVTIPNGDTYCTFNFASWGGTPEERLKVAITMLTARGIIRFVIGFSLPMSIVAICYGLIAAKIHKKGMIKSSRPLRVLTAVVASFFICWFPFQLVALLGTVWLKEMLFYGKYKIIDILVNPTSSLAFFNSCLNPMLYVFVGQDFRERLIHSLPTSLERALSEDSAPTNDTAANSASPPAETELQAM
Kind of test: FPR2 cyclic adenosine monophosphate (cAMP) assay. To be noted: CHO cells overexpressing human FPR2; forskolin 5 μM; inhibition of cAMP production; HTRF; read-out: hFPR2 cAMP2 EC50. Type of test: cell-based. The essentials:
(§1)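 CHO cells overexpressing human FPR1 (4,000/well) or FPR2 (2,000/well) were incubated 30 min at room temperature with compound (0.020 nM to 100 μM, 1% DMSO), IBMX 200 μM, and forskolin at 10 μM (FPR1) or 5 μM (FPR2), all final. HTRF cAMP read-out; inhibition fitted by 4-parameter logistic equation.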
In general terms: cAMP levels reflect the balance of adenylyl cyclase and phosphodiesterase activity.

Another test concerns the target T2, human FPR1 (Homo sapiens, UniProt P21462).
T2 sequence (P21462 1-350): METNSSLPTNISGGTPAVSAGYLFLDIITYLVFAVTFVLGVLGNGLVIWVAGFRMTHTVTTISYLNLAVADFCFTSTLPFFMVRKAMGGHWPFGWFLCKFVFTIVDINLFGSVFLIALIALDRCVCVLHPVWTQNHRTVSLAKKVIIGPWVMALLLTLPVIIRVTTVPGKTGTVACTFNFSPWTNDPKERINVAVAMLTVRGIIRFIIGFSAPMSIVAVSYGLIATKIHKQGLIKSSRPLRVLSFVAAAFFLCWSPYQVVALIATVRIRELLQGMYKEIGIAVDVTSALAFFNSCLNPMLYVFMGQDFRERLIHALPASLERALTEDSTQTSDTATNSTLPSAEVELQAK
Kind of test: FPR1 cyclic adenosine monophosphate (cAMP) assay. The class given is cell-based. To be noted: CHO cells overexpressing human FPR1; forskolin 10 μM; inhibition of cAMP production; HTRF; read-out: hFPR1 cAMP2 EC50. The essentials:
as §1

With `COc1cc(F)c(-c2c(NC(=O)c3ccc(OC(F)F)cc3)c(=O)n(-c3cc(C)cc(Cl)c3)n2C)c(F)c1` [Example 134, N-[2-(3-chloro-5-methylphenyl)-5-(2,6-difluoro-4-methoxyphenyl)-1-methyl-3-oxo-2,3-dihydro-1H-pyrazol-4-yl]-4-(difluoromethoxy)benzamide], the EC50 – broadly, the concentration that produces a half-maximal response – at human FPR2 is 10 nM; at human FPR1, over 10000 nM.
For `COc1cc(F)c(-c2c(NC(=O)c3ccc(OC(F)F)cc3)c(=O)n(-c3nc(N4CCN(C)CC4)ccc3C(F)(F)F)n2C)c(F)c1` [Example 135, N-[5-(2,6-difluoro-4-methoxyphenyl)-1-methyl-2-[6-(4-methylpiperazin-1-yl)-3-(trifluoromethyl)pyridin-2-yl]-3-oxo-2,3-dihydro-1H-pyrazol-4-yl]-4-(difluoromethoxy)benzamide] the same measures were 3 nM and 2400 nM.
For `COc1cc(F)c(-c2c(NC(=O)c3ccc(OC(F)F)cc3)c(=O)n(-c3nc(N(C)C)ccc3C(F)(F)F)n2C)c(F)c1` [Example 136, N-[5-(2,6-difluoro-4-methoxyphenyl)-2-[6-(dimethylamino)-3-(trifluoromethyl)pyridin-2-yl]-1-methyl-3-oxo-2,3-dihydro-1H-pyrazol-4-yl]-4-(difluoromethoxy)benzamide] the same measures were 3 nM and 6800 nM.
As to `COc1cc(F)c(-c2c(NC(=O)c3ccc(OC(F)F)cc3)c(=O)n(-c3nc(N4C5CCC4CN(C)C5)ccc3C(F)(F)F)n2C)c(F)c1` [Example 137, N-[5-(2,6-difluoro-4-methoxyphenyl)-1-methyl-2-(6-{3-methyl-3,8-diazabicyclo[3.2.1]octan-8-yl}-3-(trifluoromethyl)pyridin-2-yl)-3-oxo-2,3-dihydro-1H-pyrazol-4-yl]-4-(difluoromethoxy)benzamide], the values for the EC50 at human FPR2 and at human FPR1 were 16 nM and 7100 nM, respectively.
The matching figures for `COc1cc(F)c(-c2c(NC(=O)c3ccc(OC(F)F)cc3)c(=O)n(-c3nc(N4CC(C)(O)C4)ccc3C(F)(F)F)n2C)c(F)c1` [Example 138, N-[5-(2,6-difluoro-4-methoxyphenyl)-2-[6-(3-hydroxy-3-methylazetidin-1-yl)-3-(trifluoromethyl)pyridin-2-yl]-1-methyl-3-oxo-2,3-dihydro-1H-pyrazol-4-yl]-4-(difluoromethoxy)benzamide]: 4 nM and 4800 nM.
Take `COc1cc(F)c(-c2c(NC(=O)c3ccc(OC(F)F)cc3)c(=O)n(-c3nc(N(CCO)CCO)ccc3C(F)(F)F)n2C)c(F)c1` [Example 139, N-(2-{6-[bis(2-hydroxyethyl)amino]-3-(trifluoromethyl)pyridin-2-yl}-5-(2,6-difluoro-4-methoxyphenyl)-1-methyl-3-oxo-2,3-dihydro-1H-pyrazol-4-yl)-4-(difluoromethoxy)benzamide]: the EC50 is 3 nM on human FPR2 and over 10000 nM on human FPR1.
On to `COc1cc(F)c(-c2c(NC(=O)c3ccc(OC(F)F)cc3)c(=O)n(-c3nc(N4CC(OC(C)C)C4)ccc3C(F)(F)F)n2C)c(F)c1` [Example 140, N-[5-(2,6-difluoro-4-methoxyphenyl)-1-methyl-3-oxo-2-{6-[3-(propan-2-yloxy)azetidin-1-yl]-3-(trifluoromethyl)pyridin-2-yl}-2,3-dihydro-1H-pyrazol-4-yl]-4-(difluoromethoxy)benzamide], for which the figures for the EC50 on human FPR2 and at human FPR1 were 4 nM and 1500 nM, respectively.
The matching figures for `COc1cc(F)c(-c2c(NC(=O)c3ccc(Cl)cc3)c(=O)n(-c3nc(N4CC(OC(C)C)C4)ccc3C(F)(F)F)n2C)c(F)c1` [Example 141, 4-chloro-N-[5-(2,6-difluoro-4-methoxyphenyl)-1-methyl-3-oxo-2-{6-[3-(propan-2-yloxy)azetidin-1-yl]-3-(trifluoromethyl)pyridin-2-yl}-2,3-dihydro-1H-pyrazol-4-yl]benzamide]: 7 nM and 3300 nM.
For the molecule `COc1cc(F)c(-c2c(NC(=O)c3ccc(OC(F)F)cc3)c(=O)n(-c3ncccc3N(C)C)n2C)c(F)c1` [Example 142, N-[5-(2,6-difluoro-4-methoxyphenyl)-2-[3-(dimethylamino)pyridin-2-yl]-1-methyl-3-oxo-2,3-dihydro-1H-pyrazol-4-yl]-4-(difluoromethoxy)benzamide], the EC50 at human FPR2 is 17 nM; on human FPR1 it was 3100 nM.
The matching figures for `COc1cc(F)c(-c2c(NC(=O)c3ccc(OC(F)F)cc3)c(=O)n(-c3nc(N4CCN(C)CC4)ccc3Cl)n2C)c(F)c1` [Example 143, N-{2-[3-chloro-6-(4-methylpiperazin-1-yl)pyridin-2-yl]-5-(2,6-difluoro-4-methoxyphenyl)-1-methyl-3-oxo-2,3-dihydro-1H-pyrazol-4-yl}-4-(difluoromethoxy)benzamide]: 10 nM and 3700 nM.
`COc1cc(F)c(-c2c(NC(=O)c3ccc(OC(F)F)cc3)c(=O)n(-c3nc(Cl)ccc3N3CC4(COC4)C3)n2C)c(F)c1` [Example 144, N-[2-(6-chloro-3-{2-oxa-6-azaspiro[3.3]heptan-6-yl}pyridin-2-yl)-5-(2,6-difluoro-4-methoxyphenyl)-1-methyl-3-oxo-2,3-dihydro-1H-pyrazol-4-yl]-4-(difluoromethoxy)benzamide]: the concentration for a half-maximal effect (EC50) on human FPR2 was 22 nM; on human FPR1, over 10000 nM.
The matching figures for `COc1cc(F)c(-c2c(NC(=O)c3ccc(OC(F)F)cc3)c(=O)n(-c3nc(N4CC(F)(F)C4)ccc3Cl)n2C)c(F)c1` [Example 145, N-{2-[3-chloro-6-(3,3-difluoroazatidin-1-yl)pyridin-4-methoxyphenyl)-1-methyl-3-oxo-2,3-dihydro-1H-pyrazol-4-yl}-4-(difluoromethoxy)benzamide]: 3 nM and 2900 nM.
Turning to `COc1cc(F)c(-c2c(NC(=O)c3ccc(OC(F)F)cc3)c(=O)n(-c3nc(Cl)ccc3F)n2C)c(F)c1` [Example 146, N-[2-(6-chloro-3-fluoropyridin-2-yl)-5-(2,6-difluoro-4-methoxyphenyl)-1-methyl-3-oxo-2,3-dihydro-1H-pyrazol-4-yl]-4-(difluoromethoxy)benzamide], the results for the EC50 on human FPR2 and on human FPR1 were 6 nM and over 10000 nM, respectively.
The matching figures for `COc1cc(F)c(-c2c(NC(=O)c3ccc(OC(F)F)cc3)c(=O)n(-c3nc(N(C)C)ccc3Cl)n2C)c(F)c1` [Example 147, N-{2-[3-chloro-6-(dimethylamino)pyridin-2-yl]-5-(2,6-difluoro-4-methoxyphenyl)-1-methyl-3-oxo-2,3-dihydro-1H-pyrazol-4-yl}-4-(difluoromethoxy)benzamide]: 3 nM and 730 nM.
As to `COc1cc(F)c(-c2c(NC(=O)c3ccc(OC(F)F)cc3)c(=O)n(-c3cc(F)cc(C(C)(C)O)c3)n2C)c(F)c1` [Example 148, N-[5-(2,6-difluoro-4-methoxyphenyl)-2-[3-fluoro-5-(2-hydroxypropan-2-yl)phenyl]-1-methyl-3-oxo-2,3-dihydro-1H-pyrazol-4-yl]-4-(difluoromethoxy)benzamide], the EC50 at human FPR2 stood at 4 nM; on human FPR1, 1500 nM.
For `COc1cc(F)c(-c2c(NC(=O)c3ccc(OC(F)F)cc3)c(=O)n(-c3cc(Cl)cc(N4C[C@H]5C[C@@H]4CN5)c3)n2C)c(F)c1` [Example 149, N-(2-{3-chloro-5-[(1R,4R)-2,5-diazabicyclo[2.2.1]heptan-2-yl]phenyl}-5-(2,6-difluoro-4-methoxyphenyl)-1-methyl-3-oxo-2,3-dihydro-1H-pyrazol-4-yl)-4-(difluoromethoxy)benzamide] the same measures were 6 nM and 4700 nM.
For `COc1cc(F)c(-c2c(NC(=O)c3ccc(OC(F)F)cc3)c(=O)n(-c3cccc(N4CCCCC4=O)n3)n2C)c(F)c1` [Example 150, N-[5-(2,6-difluoro-4-methoxyphenyl)-1-methyl-3-oxo-2-[6-(2-oxopiperidin-1-yl)pyridin-2-yl]-2,3-dihydro-1H-pyrazol-4-yl]-4-(difluoromethoxy)benzamide], the EC50 at human FPR2 came to 13 nM; on human FPR1, 1500 nM.
For `COc1cc(F)c(-c2c(NC(=O)c3ccc(OC(F)(F)F)cc3)c(=O)n(-c3cc(C)ccn3)n2C)c(F)c1` [Example 151, N-[5-(2,6-difluoro-4-methoxyphenyl)-1-methyl-2-(4-methylpyridin-2-yl)-3-oxo-2,3-dihydro-1H-pyrazol-4-yl]-4-(trifluoromethoxy)benzamide] the same measures were 13 nM and 2700 nM.

The values above are taken from patent US12577206B2 (BRISTOL-MYERS SQUIBB COMPANY, priority 2020, dated 2026).
